Assay results: patent publication US20250019379A1, “NEW CRYSTAL FORM OF COMPOUND, AND PREPARATION METHOD THEREFOR AND USE THEREOF” (E-nitiate Biopharmaceuticals (Hangzhou) Co., Ltd, priority 2021, published 2025)
Where “and” joins values, the source holds several entries; their conditions need not be identical. Identical values can stand only once. Marks after values point to notes of the source that are not given here.

System: psoriasis animal model
Assay: Psoriasis animal model (imiquimod cream induced)
Assay type: in vivo, C57/BL 6J mice
Settings: for Inhibition rate of skin thickening: 7th day of treatment
Excerpt: C57/BL 6J mice, 75, female, 7-8 weeks old, weight 18 g-20 g. The animals were from Zhejiang Weitong Lihua Experimental Animal Technology Co., Ltd. (SCXK (Zhejiang) 2019-0001), experimental animal production certificate number 20210107Abzz0619000247; experimental animal use license number: SYXK (Shanghai) 2020-0001 (Via Biotechnology (Shanghai Co., Ltd).
Modeling and administration method: Use depilatory cream to remove hair from an area of about 2 cm×3 cm on the back of each animal. Control the application time of depilatory cream within 2 minutes. Wash the depilated area with warm water, wash off the depilatory agent, and use immediately. Dry the animal's hair with a hair dryer, and place the animal on a constant-temperature electric blanket at 37° C. for 1 h-2 h. After the animal moves freely, it is placed in a cage for normal rearing and recovery for 1 day (if any animal has red, swollen and damaged skin after hair removal, remove it). On the second day, 54 animals with normal skin were selected and randomly grouped according to body weight, with 9 animals in each group, a total of 6 groups. Each animal in the G2-G6 group was evenly applied with 60 mg (60 μL) of 5 wt % imiquimod cream (Aldara) on the back every day for seven consecutive days.
Skin thickness (double-layer): Use a vernier caliper to measure the double-layer thickness of the back skin before drug administration and modeling, and on days 1, 3, 5, and 7 after drug administration.
PASI score: The condition score refers to the clinical PASI scoring standard, and scores three indicators: erythema, scale, and thickness. The total score is 12 points. The scoring standards are as follows:
Erythema: 0 points, none; 1 points, slight: light red; 2 points, moderate: red; 3 points, significant: dark red; 4 points, very obvious: extremely deep red.
Scaling: 0 points, none; 1 point, slight: there are scales on part of the epidermis, mainly fine scales; 2 points, moderate: most of the skin surface is completely or incompletely covered with scales, in a flaky form; 3 points, Significant: almost all skin is covered with scales, and the scales are thick and layered; 4 points, very obvious: all the skin is covered with scales, and the scales are thick and layered.
Plaque thickening degree: 0 points, none: flush with normal skin; 1 points, slight: slightly higher than the skin surface: 2 points, moderate: moderately raised, with round or sloped plaque edges; 3 points, obvious Score: The plaque is hypertrophic and the bulge is obvious; 4 points, very significant: it is highly thickened and the bulge is very obvious.
Skin proliferation inhibition rate (%)=1−[(skin thickness of the treatment group on the 7th day−skin thickness of the blank control group on the 7th day)/skin thickness of the negative control group on the 7th day−skin thickness of the blank control group on the 7th day)]%.
All data are expressed as Mean t SEM. The statistical analysis software SPSS23.0 was used to conduct normal distribution and homogeneity of variance tests on the data. Based on the results, the single-factor analysis of variance method was selected and the homogeneity of variance test was selected based on the results. *P<0.05 will be considered a statistically significant difference.

[1] = 0.5 mg/kg oral twice a day, Day 0
[2] = 0.5 mg/kg oral twice a day, Day 1
[3] = 0.5 mg/kg oral twice a day, Day 3
[4] = 0.5 mg/kg oral twice a day, Day 5
[5] = 0.5 mg/kg oral twice a day, Day 7
[6] = 1.5 mg/kg oral twice a day, Day 0
[7] = 1.5 mg/kg oral twice a day, Day 1
[8] = 1.5 mg/kg oral twice a day, Day 3
[9] = 1.5 mg/kg oral twice a day, Day 5
[10] = 1.5 mg/kg oral twice a day, Day 7
[11] = 1.5 mg/kg oral twice a day, Day 7, listed as crystalline form A
[12] = 5 mg/kg oral twice a day, Day 0
[13] = 5 mg/kg oral twice a day, Day 1
[14] = 5 mg/kg oral twice a day, Day 3
[15] = 5 mg/kg oral twice a day, Day 5
[16] = 5 mg/kg oral twice a day, Day 7
[17] = 5 mg/kg oral twice a day, Day 7, listed as crystalline form A

C[C@@H](O)c1nc2cnc3[nH]ccc3c2n1N1CCC(CC#N)CC1 [Crystalline form A, (R)-2-(1-(2-(1-hydroxyethyl)imidazo[4,5-d]pyrrolo[2,3-b]pyridine-1(6H)-yl)piperidin-4-yl)acetonitrile]
Inhibition rate of skin thickening (0.5 mg/kg oral twice a day): 34.6%
Average skin thickness (double layer) [1]: 0.50 ± 0.01 mm
PASI score [1]: 0.0 points
Average skin thickness (double layer) [2]: 0.60 ± 0.01 mm
PASI score [2]: 0.0 points
Average skin thickness (double layer) [3]: 1.57 ± 0.11 mm
PASI score [3]: 6.6 ± 0.69 points
Average skin thickness (double layer) [4]: 1.27 ± 0.1*** mm
PASI score [4]: 5.9 ± 0.79** points
Average skin thickness (double layer) [5]: 1.32 ± 0.09 mm and 1.32 mm
PASI score [5]: 6.1 ± 0.56*** points
PASI score (0.5 mg/kg oral twice a day, Day 7, listed as crystalline form A): 6.1 points
Inhibition rate of skin thickening (1.5 mg/kg oral twice a day): 56.4%
Inhibition rate of skin thickening (1.5 mg/kg oral twice a day, listed as crystalline form A): 56.4%
Average skin thickness (double layer) [6]: 0.50 ± 0.01 mm
PASI score [6]: 0.0 points
Average skin thickness (double layer) [7]: 0.61 ± 0.02 mm
PASI score [7]: 0.0 points
Average skin thickness (double layer) [8]: 1.76 ± 0.15 mm
PASI score [8]: 6.1 ± 0.56 points
Average skin thickness (double layer) [9]: 1.53 ± 0.08** mm
PASI score [9]: 7.0 ± 0.53 points
Average skin thickness (double layer) [10]: 1.15 ± 0.04** mm and 1.15 mm
PASI score [10]: 4.9 ± 0.39*** points
Average skin thickness (double layer) [11]: 1.15 mm
PASI score [11]: 4.9 points
Inhibition rate of skin thickening (5 mg/kg oral twice a day): 71.8%
Inhibition rate of skin thickening (5 mg/kg oral twice a day, listed as crystalline form A): 71.8%
Average skin thickness (double layer) [12]: 0.50 ± 0.01 mm
PASI score [12]: 0.0 points
Average skin thickness (double layer) [13]: 0.64 ± 0.01 mm
PASI score [13]: 0.0 points
Average skin thickness (double layer) [14]: 1.35 ± 0.10* mm
PASI score [14]: 4.9 ± 0.48 points
Average skin thickness (double layer) [15]: 1.24 ± 0.11*** mm
PASI score [15]: 4.7 ± 0.58*** points
Average skin thickness (double layer) [16]: 1.03 ± 0.03*** mm and 1.03 mm
PASI score [16]: 3.6 ± 0.44*** points
Average skin thickness (double layer) [17]: 1.03 mm
PASI score [17]: 3.6 points
